Assay results published in PubChem BioAssay AID588710 (Vanderbilt Specialized Chemistry Center, 2011).

Biological target: Metabotropic glutamate receptor 5 (Rattus norvegicus) (UniProt P31424)
Assay: PubChem AID 588710
Details: HEK293 rat mGluR5 membranes, [3H]methoxyPEPy displacement

Metabotropic glutamate receptor 5 (Rattus norvegicus), sequence (P31424 whole entry, looked up): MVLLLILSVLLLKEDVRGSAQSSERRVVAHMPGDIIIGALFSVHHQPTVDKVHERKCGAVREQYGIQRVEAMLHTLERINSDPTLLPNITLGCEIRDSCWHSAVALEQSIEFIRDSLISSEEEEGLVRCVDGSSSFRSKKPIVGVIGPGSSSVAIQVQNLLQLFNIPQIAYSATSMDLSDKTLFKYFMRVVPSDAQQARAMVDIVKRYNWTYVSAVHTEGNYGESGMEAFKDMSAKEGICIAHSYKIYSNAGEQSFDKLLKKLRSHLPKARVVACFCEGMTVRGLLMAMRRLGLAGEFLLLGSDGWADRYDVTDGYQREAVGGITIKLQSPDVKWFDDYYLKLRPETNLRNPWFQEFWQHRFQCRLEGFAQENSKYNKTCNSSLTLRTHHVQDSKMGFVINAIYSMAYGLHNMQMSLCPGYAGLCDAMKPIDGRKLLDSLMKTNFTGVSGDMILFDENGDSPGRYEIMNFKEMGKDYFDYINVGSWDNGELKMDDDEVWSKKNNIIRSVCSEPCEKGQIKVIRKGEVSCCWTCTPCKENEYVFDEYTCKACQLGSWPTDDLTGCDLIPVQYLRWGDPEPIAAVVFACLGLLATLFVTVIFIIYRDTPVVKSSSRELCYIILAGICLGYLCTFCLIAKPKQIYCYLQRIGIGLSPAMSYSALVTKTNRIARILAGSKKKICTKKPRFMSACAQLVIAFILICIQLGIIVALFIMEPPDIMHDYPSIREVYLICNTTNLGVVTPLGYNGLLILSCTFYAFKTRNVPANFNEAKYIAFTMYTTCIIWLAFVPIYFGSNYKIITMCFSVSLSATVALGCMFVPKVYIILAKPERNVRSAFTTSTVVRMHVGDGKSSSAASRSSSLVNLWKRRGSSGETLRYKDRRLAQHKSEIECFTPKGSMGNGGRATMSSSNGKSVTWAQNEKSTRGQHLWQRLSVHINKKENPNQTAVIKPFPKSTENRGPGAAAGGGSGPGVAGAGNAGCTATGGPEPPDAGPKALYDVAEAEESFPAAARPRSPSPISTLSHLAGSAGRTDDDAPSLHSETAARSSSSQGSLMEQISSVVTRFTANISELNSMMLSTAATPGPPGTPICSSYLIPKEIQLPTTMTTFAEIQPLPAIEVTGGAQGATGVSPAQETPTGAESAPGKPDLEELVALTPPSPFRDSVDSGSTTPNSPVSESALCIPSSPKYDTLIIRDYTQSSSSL

IC50: 4.84 nM
Structure (SMILES): C[C@@H](NC(=O)c1ccc(C#Cc2cccc(F)c2)cn1)C(C)(C)O
